Measured values taken from ChEMBL document CHEMBL5385863, “Targeting the phosphoserine phosphatase MtSerB2 for tuberculosis drug discovery, an hybrid knowledge based /fragment based approach” (Eur J Med Chem, 2023).
Activity calls are given as the source filed them. The calls are words filed in the database; no cut-off is given here.

How the values were obtained:
[1] = target: Phosphoserine phosphatase SerB2 (Mycobacterium tuberculosis) (UniProt O53289); assay: Inhibition of Mycobacterium tuberculosis SerB2 expressed in Escherichia coli BL21 at 1 mM incubated for 10 mins by malachite green dye based phosphatase assay
[2] = target: Phosphoserine phosphatase SerB2 (Mycobacterium tuberculosis) (UniProt O53289); assay: Binding affinity to Mycobacterium tuberculosis SerB2 expressed in Escherichia coli BL21 (DE3) cells assessed as change in melting temperature at 4 mM by differential scanning fluorimetry
[3] = target: Phosphoserine phosphatase SerB2 (Mycobacterium tuberculosis) (UniProt O53289); assay: Binding affinity to Mycobacterium tuberculosis SerB2 expressed in Escherichia coli BL21 (DE3) cells assessed as protein destabilization at 4 mM by differential scanning fluorimetry
[4] = target: Phosphoserine phosphatase SerB2 (Mycobacterium tuberculosis) (UniProt O53289); assay: Inhibition of Mycobacterium tuberculosis SerB2 expressed in Escherichia coli BL21 at 1 mM incubated for 10 mins by malachite green dye based phosphatase assay relative to control

Chain of Phosphoserine phosphatase SerB2 (Mycobacterium tuberculosis) (O53289 whole entry): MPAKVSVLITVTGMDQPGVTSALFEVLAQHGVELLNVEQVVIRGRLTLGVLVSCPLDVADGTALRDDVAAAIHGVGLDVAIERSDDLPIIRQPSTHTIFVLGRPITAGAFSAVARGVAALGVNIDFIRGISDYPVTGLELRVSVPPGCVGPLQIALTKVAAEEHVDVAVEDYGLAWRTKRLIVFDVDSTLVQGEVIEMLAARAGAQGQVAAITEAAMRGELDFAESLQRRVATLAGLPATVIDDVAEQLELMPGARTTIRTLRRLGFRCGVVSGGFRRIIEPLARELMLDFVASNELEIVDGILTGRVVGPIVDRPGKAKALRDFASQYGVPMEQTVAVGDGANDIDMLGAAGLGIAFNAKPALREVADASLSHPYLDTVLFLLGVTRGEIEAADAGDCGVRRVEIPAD

Row | SMILES | inhibition [1] | ΔTm [2] | Activity [3] | inhibition [4]
1 | NCCCP(=O)(O)O | Active | – | – | –
2 | c1ccc(-c2c[nH]cn2)cc1 | – | > 0.5 °C | Active | –
3 | CCC(N)P(=O)(O)O (configuration not stated) | Active | – | – | –
4 | NC(=O)NO | Active | > 0.5 °C | Active | –
5 | N[C@@H](CCS(=O)(=O)O)C(=O)O | – | > 0.5 °C | Active | –
6 | O=C(O)c1cc(O)ccn1 | – | > 0.5 °C | Active | > 50%
7 | c1c[nH]cn1 | Active | – | – | –
8 | O=P(O)(O)C(O)(Cn1ccnc1)P(=O)(O)O | – | > 0.5 °C | Active | > 50%
9 | Cc1cc(C2CCCCC2)n(O)c(=O)c1 | – | > 0.5 °C | Active | –
10 | Nc1ccncc1 | – | > 0.5 °C | Active | –
11 | Nc1ccc(O)cc1 | – | > 0.5 °C | inactive | > 50%
12 | O=C(NO)Nc1ccc(Cl)cc1Cl | – | > 0.5 °C | Active | > 50%
13 | Nc1ccc(C(=O)O)c(O)c1 | Active | – | – | –
